# Measured values reported in US20200163984A1, “USE OF ISOVALERYL SPIRAMYCIN I, II AND/OR III IN MANUFACTURING MEDICAMENT FOR TREATING AND/OR PREVENTING TUMOR, AND MEDICAMENT” (SHENYANG FUYANG PHARMACEUTICAL TECHNOLOGY CO., LTD., priority 2017, published 2020).
# Key:
# [1] = tested on: transplanted tumor of human lymphoma cell U937; assay: U937 transplanted tumor in nude mice; details: for Tumor Volume (mm3) (d 1): d1
# Description: (§1) U937 cells in a logarithmic growth phase were taken and subjected to a trypan blue exclusion experiment showing that the cell viability was more than 95%, then the cells were subjected to trypsinization, centrifugation, and supernatant removal. Then cell concentration was adjusted to 1×10^7/ml with matrigel, then each nude mouse was inoculated subcutaneously with 0.2 ml of cells at its right armpit and recorded as the first day of inoculation. When the tumor grows to be greater than or equal to 100 mm^3, the mice were randomly divided into 11 groups with 6 mice in each group: a model group, a cyclophosphamide group, isovaleryl spiramycin I groups with doses of 25, 50 and 100 mg/kg, isovaleryl spiramycin II groups with doses of 25, 50 and 100 mg/kg, and isovaleryl spiramycin III groups with doses of 25, 50 and 100 mg/kg. Each group was continuously administered intragastrically for 30 days with a dose of 20 ml/kg. The mice were sacrificed the next day after drug withdrawal and the indicators were tested. The long diameter and short diameter of the tumor, and the body weight of each mouse were recorded every 3 days from drug administration to nude mouse sacrifice.
# (§2) The body weight of the nude mice and the long diameter (a) and short diameter (b) of the transplanted tumor were measured every 3 days, and the tumor volume (v), relative tumor volume (RTV) and relative tumor proliferation rate (T/C) are calculated respectively according to the following formulas, wherein V=a×b^2/2; RTV=V/V0 (V0 is the tumor volume before administration, V is the tumor volume before sacrifice), and T/C (%)=treatment group RTV/model control group RTV×100%.
# (§3) Each mouse was weighed and sacrificed. After the tumor was completely stripped off from the body of the mouse, the non-tumor tissues such as blood stains and fat were removed to weigh the tumor and calculate the tumor growth inhibition rate. The average tumor weight of each group of mice is used as an indicator of efficacy. Tumor growth inhibition rate (%)=(1−the average tumor weight of the treatment group/the average tumor weight of the model group)×100%.
# [2] = tested on: transplanted tumor of human renal cell adenocarcinoma cell 769-P; assay: 769-P transplanted tumor in nude mice; details: for Tumor Volume (mm3) (d 1): d1
# Description: as §1, with “Then” for “U937 cells in a logarithmic growth phase were taken and subjected to a trypan blue exclusion experiment showing that the cell viability was more than 95%, then the cells were subjected to trypsinization, centrifugation, and supernatant removal. Then”, “the” for “the body”
# as §2, §3
# [3] = Thymus index and spleen index of H22 liver cancer tumor-bearing mice
# Description: In the H22 liver cancer model, the mice inoculated with the tumor were randomly divided into groups with 10 mice in each group on the next day of inoculation. The groups included: a model control group, a positive drug cyclophosphamide control group (CTX, 26 mg/kg), isovaleryl spiramycin I groups with doses of 13, 26 and 52 mg/kg; isovaleryl spiramycin II groups with doses of 13, 26 and 52 mg/kg; isovaleryl spiramycin III groups with doses of 13, 26 and 52 mg/kg. Each group was continuously administered intragastrically for 7 days with a dose of 20 ml/kg.
# [4] = U937, high dose (100 mg/kg in method) i.g. 30 days
# [5] = U937, low dose (25 mg/kg in method) i.g. 30 days
# [6] = U937, medium dose (50 mg/kg in method) i.g. 30 days
# [7] = 769-P, high dose (100 mg/kg in method) i.g. 30 days
# [8] = 769-P, low dose (25 mg/kg in method) i.g. 30 days
# [9] = 769-P, medium dose (50 mg/kg in method) i.g. 30 days
compound,measurement,setting,value
"CCC(=O)O[C@@H]1CC(=O)O[C@H](C)C/C=C/C=C/[C@H](O[C@H]2CC[C@H](N(C)C)[C@@H](C)O2)[C@H](C)C[C@H](CC=O)[C@H](O[C@@H]2O[C@H](C)[C@@H](O[C@H]3C[C@@](C)(O)[C@@H](OC(=O)CC(C)C)[C@H](C)O3)[C@H](N(C)C)[C@H]2O)[C@H]1OC [Isovaleryl spiramycin III, isovaleryl spiramycin III]",Relative Tumor Proliferation Rate (T/C),[1]; [4],38.66%
same,tumor growth inhibition rate,[1]; [4],61.77%
same,Relative Tumor Proliferation Rate (T/C),[1]; [5],63.36%
same,tumor growth inhibition rate,[1]; [5],41.19%
same,tumor volume and relative tumor volume compared with the model group,"[1]; U937, low, medium and high doses, P<0.05",significantly lower
same,Relative Tumor Proliferation Rate (T/C),[1]; [6],49.30%
same,tumor growth inhibition rate,[1]; [6],53.03%
same,Inhibition Rate (%),"[1]; U937 nude mice, 12.5 mg/kg",41.19%
same,Relative Tumor Proliferation Rate (T/C),"[1]; U937 nude mice, 12.5 mg/kg",63.36%
same,Relative Tumor Volume (RTV),"[1]; U937 nude mice, 12.5 mg/kg",10.80 ± 3.02
same,Tumor Weight,"[1]; U937 nude mice, 12.5 mg/kg",1.14 ± 0.54 g
same,Tumor Volume (mm3) (d 1),"[1]; U937 nude mice, 12.5 mg/kg",119.70 ± 18.30 mm3
same,Tumor Volume (mm3) (d30),"[1]; U937 nude mice, 12.5 mg/kg",1314.25 ± 479.76 mm3
same,Inhibition Rate (%),"[1]; U937 nude mice, 25 mg/kg",53.03%
same,Relative Tumor Proliferation Rate (T/C),"[1]; U937 nude mice, 25 mg/kg",49.30%
same,Relative Tumor Volume (RTV),"[1]; U937 nude mice, 25 mg/kg",8.40 ± 2.25
same,Tumor Weight,"[1]; U937 nude mice, 25 mg/kg",0.91 ± 0.51 g
same,Tumor Volume (mm3) (d 1),"[1]; U937 nude mice, 25 mg/kg",112.93 ± 27.42 mm3
same,Tumor Volume (mm3) (d30),"[1]; U937 nude mice, 25 mg/kg",939.79 ± 296.72 mm3
same,Inhibition Rate (%),"[1]; U937 nude mice, 50 mg/kg",61.77%
same,Relative Tumor Proliferation Rate (T/C),"[1]; U937 nude mice, 50 mg/kg",38.66%
same,Relative Tumor Volume (RTV),"[1]; U937 nude mice, 50 mg/kg",6.59 ± 0.90
same,Tumor Weight,"[1]; U937 nude mice, 50 mg/kg",0.74 ± 0.18 g
same,Tumor Volume (mm3) (d 1),"[1]; U937 nude mice, 50 mg/kg",112.85 ± 21.90 mm3
same,Tumor Volume (mm3) (d30),"[1]; U937 nude mice, 50 mg/kg",728.49 ± 51.66 mm3
same,mouse weight compared with the model group,"[1]; mouse, in vivo",no significant changes
same,Body Weight (g) (d1),"[1]; mouse, in vivo, 12.5 mg/kg",20.84 ± 0.68 g
same,Body Weight (g) (d30),"[1]; mouse, in vivo, 12.5 mg/kg",20.92 ± 0.63 g
same,Body Weight (g) (d1),"[1]; mouse, in vivo, 25 mg/kg",20.91 ± 0.58 g
same,Body Weight (g) (d30),"[1]; mouse, in vivo, 25 mg/kg",20.74 ± 0.352 g
same,Body Weight (g) (d1),"[1]; mouse, in vivo, 50 mg/kg",21.16 ± 0.61 g
same,Body Weight (g) (d30),"[1]; mouse, in vivo, 50 mg/kg",21.24 ± 0.50 g
same,Inhibition Rate (%),"[2]; 769-P nude mice, 25 mg/kg",40.87%
same,Relative Tumor Proliferation Rate (T/C),"[2]; 769-P nude mice, 25 mg/kg",61.59%
same,Relative Tumor Volume (RTV),"[2]; 769-P nude mice, 25 mg/kg",11.37 ± 1.469
same,Tumor Weight,"[2]; 769-P nude mice, 25 mg/kg",1.22 ± 0.46 g
same,Tumor Volume (mm3) (d 1),"[2]; 769-P nude mice, 25 mg/kg",146.32 ± 43.02 mm3
same,Tumor Volume (mm3) (d30),"[2]; 769-P nude mice, 25 mg/kg",1663.32 ± 445.50 mm3
same,Inhibition Rate (%),"[2]; 769-P nude mice, 50 mg/kg",60.50%
same,Relative Tumor Proliferation Rate (T/C),"[2]; 769-P nude mice, 50 mg/kg",51.59%
same,Relative Tumor Volume (RTV),"[2]; 769-P nude mice, 50 mg/kg",9.52 ± 1.67
same,Tumor Weight,"[2]; 769-P nude mice, 50 mg/kg",0.82 ± 0.06 g
same,Tumor Volume (mm3) (d 1),"[2]; 769-P nude mice, 50 mg/kg",180.43 ± 51.70 mm3
same,Tumor Volume (mm3) (d30),"[2]; 769-P nude mice, 50 mg/kg",1717.76 ± 524.33 mm3
same,Inhibition Rate (%),"[2]; 769-P nude mice, 100 mg/kg",64.46%
same,Relative Tumor Proliferation Rate (T/C),"[2]; 769-P nude mice, 100 mg/kg",36.55%
same,Relative Tumor Volume (RTV),"[2]; 769-P nude mice, 100 mg/kg",6.56 ± 0.28
same,Tumor Weight,"[2]; 769-P nude mice, 100 mg/kg",0.73 ± 0.08 g
same,Tumor Volume (mm3) (d 1),"[2]; 769-P nude mice, 100 mg/kg",104.38 ± 12.92 mm3
same,Tumor Volume (mm3) (d30),"[2]; 769-P nude mice, 100 mg/kg",684.88 ± 62.28 mm3
same,Relative Tumor Proliferation Rate (T/C),[2]; [7],35.55%
same,tumor growth inhibition rate,[2]; [7],64.46%
same,Relative Tumor Proliferation Rate (T/C),[2]; [8],61.59%
same,tumor growth inhibition rate,[2]; [8],40.87%
same,tumor volume and relative tumor volume compared with the model group,"[2]; 769-P, low, medium and high doses, P<0.05",significantly lower
same,Relative Tumor Proliferation Rate (T/C),[2]; [9],51.59%
same,tumor growth inhibition rate,[2]; [9],60.50%
same,mouse weight compared with the model group,"[2]; mouse, in vivo",no significant changes
same,Body Weight (g) (d1),"[2]; mouse, in vivo, 25 mg/kg",23.09 ± 1.90 g
same,Body Weight (g) (d30),"[2]; mouse, in vivo, 25 mg/kg",22.72 ± 0.78 g
same,Body Weight (g) (d1),"[2]; mouse, in vivo, 50 mg/kg",22.90 ± 1.00 g
same,Body Weight (g) (d30),"[2]; mouse, in vivo, 50 mg/kg",21.43 ± 1.08 g
same,Body Weight (g) (d1),"[2]; mouse, in vivo, 100 mg/kg",20.49 ± 1.14 g
same,Body Weight (g) (d30),"[2]; mouse, in vivo, 100 mg/kg",22.28 ± 1.72 g
same,Spleen Index (%),[3]; dose 13 mg/kg,0.68 ± 0.15%
same,Thymus Index (%),[3]; dose 13 mg/kg,0.15 ± 0.06%
same,Spleen Index (%),[3]; dose 26 mg/kg,0.66 ± 0.21%
same,Thymus Index (%),[3]; dose 26 mg/kg,0.15 ± 0.05%
same,Spleen Index (%),[3]; dose 52 mg/kg,0.65 ± 0.26%
same,Thymus Index (%),[3]; dose 52 mg/kg,0.13 ± 0.02%
